From publication PMC8086144, “A novel peptide antagonist of the human growth hormone receptor” (The Journal of Biological Chemistry, 2021)

Tests used:
hGHR [1] = target: T1, hGHR (Homo sapiens, UniProt P10912); test: hGH-mediated pSTAT5 in MALME-3M cells, Western blot; type: cell-based; conditions: 20 min
T1 construct: previously reported to express high levels of endogenous hGHR; host or cells: SK-MEL-28, MALME-3M, IM9
T1 sequence (P10912 19-638): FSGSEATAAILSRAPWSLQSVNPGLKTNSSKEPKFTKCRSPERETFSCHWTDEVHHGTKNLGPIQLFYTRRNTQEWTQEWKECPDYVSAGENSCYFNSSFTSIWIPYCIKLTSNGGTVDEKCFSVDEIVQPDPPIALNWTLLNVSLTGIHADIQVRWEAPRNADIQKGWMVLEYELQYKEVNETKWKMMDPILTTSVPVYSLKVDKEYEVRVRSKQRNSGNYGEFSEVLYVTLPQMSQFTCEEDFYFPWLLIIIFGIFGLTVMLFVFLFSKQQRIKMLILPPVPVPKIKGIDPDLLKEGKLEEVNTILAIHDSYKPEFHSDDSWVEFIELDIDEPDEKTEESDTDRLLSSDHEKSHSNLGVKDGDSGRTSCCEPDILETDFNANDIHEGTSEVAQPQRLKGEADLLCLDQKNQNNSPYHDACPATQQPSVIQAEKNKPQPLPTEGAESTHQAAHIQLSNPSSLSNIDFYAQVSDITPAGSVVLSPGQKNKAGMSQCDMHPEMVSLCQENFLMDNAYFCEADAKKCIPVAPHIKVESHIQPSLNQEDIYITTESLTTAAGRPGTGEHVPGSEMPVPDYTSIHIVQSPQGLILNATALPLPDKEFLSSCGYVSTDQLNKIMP
Description: SK-MEL-28, MALME-3M, and T84 cells were grown and maintained in Eagle's Minimal Essential Medium. IM9 and L cells were grown in RPMI-1640 media and Dulbecco's modified Eagle's medium, respectively. All growth media was supplemented with 10% fetal bovine serum and 1× antibiotic-antimycotic […] solution. Cells were grown at 37 °C under a 5% CO2 atmosphere in a humidified incubator, and growth media was replaced every 48 h during incubation. No hGH was present in or added to the growth media unless specifically indicated. […]
Following treatment, the cells were harvested at the indicated time points, and the total protein was extracted. […] Sample protein concentration was quantified using a Bradford assay with bovine serum albumin as the protein standard. Absorbance at 595 nm was measured using a Spectramax 250 multimode plate reader (Molecular Devices) and processed using SoftmaxPro v4.7.1 software.
Cytosolic fractions from treated cells were thawed on ice, and 80 μg protein was loaded onto polyacrylamide gels for separation by SDS-PAGE. […] Chemiluminescence signals were detected using a GelDoc (BioRad) fluorescence imager. […] Percent inhibition was then measured by subtracting the pSTAT5 band intensity in each lane from the pSTAT5 band intensity of hGH-treated samples. […]

hGHR [2] = target: T1, hGHR; test: hGH-mediated pSTAT5 in SK-MEL-28 cells, ELISA; type: cell-based; conditions: SK-MEL-28, 20 min, ELISA (pSTAT5A Y694/pSTAT5B Y699), SK-MEL-28 cells co-treated with hGH and 200 nM peptide, Equation 2, triplicate
Description: SK-MEL-28, MALME-3M, and T84 cells were grown and maintained in Eagle's Minimal Essential Medium. IM9 and L cells were grown in RPMI-1640 media and Dulbecco's modified Eagle's medium, respectively. All growth media was supplemented with 10% fetal bovine serum and 1× antibiotic-antimycotic […] solution. Cells were grown at 37 °C under a 5% CO2 atmosphere in a humidified incubator, and growth media was replaced every 48 h during incubation. No hGH was present in or added to the growth media unless specifically indicated. Between 12 to 16 h after seeding, adherent cells (SK-MEL-28, MALME-3M, T84, L cells) were switched to serum-free growth media (no GH) and starved for 4 h before the addition of hGH, bGH (L cells), hPRL (MALME-3M and T84 cells), or buffer at the concentrations noted. Cells were then allowed to incubate for an additional 20 min before being harvested. For suspended cell treatments, IM9 cells were pelleted by centrifugation at 140g for 5 min at room temperature. The supernatant was then removed by aspiration, and the cells were resuspended in serum-free media. The cells were then starved for 4 h at 37 °C under a 5% CO2 atmosphere in a humidified incubator and subsequently treated with hGH, S1H, or both at the indicated concentrations for 20 min before harvesting by centrifugation.
Following treatment, the cells were harvested at the indicated time points, and the total protein was extracted. To affect protein extraction, the treatment media was removed by aspiration, and the cells were washed twice with ice-cold PBS. Following washing, total protein was extracted from the cells using RIPA buffer (100 μl/million cells) supplemented with 1.5× Halt protease and phosphatase inhibitor cocktail. Briefly, chilled RIPA buffer was added to the cells, and the lysis reaction was allowed to incubate for 5 min at 4 °C. Adherent cells were harvested for lysis using a sterile cell scraper. The resultant cell suspensions were sonicated on ice for 60 s with ON (2-s)/OFF (1-s) pulses at 2% power. The cell lysate was then cleared by centrifugation at 8000g for 10 min at 4 °C. Following centrifugation, the supernatant was collected and stored at −80 °C until further use. Sample protein concentration was quantified using a Bradford assay with bovine serum albumin as the protein standard. Absorbance at 595 nm was measured using a Spectramax 250 multimode plate reader (Molecular Devices) and processed using SoftmaxPro v4.7.1 software.
Intracellular pSTAT5A (Y694) and pSTAT5B (Y699) levels were quantified from clarified protein samples using an InstantOne ELISA kit (Thermo Fisher) according to the manufacturer’s instructions. Briefly, 50 μl of protein sample (1 mg/ml) were added to wells containing 50 μl antibody cocktail in a 96-well plate and incubated at room temperature for 2 h with shaking (300 rpm). Following incubation, the wells were washed, and the bound antibodies were detected by adding detection regent and incubating the plate for 1 h at room temperature with shaking (300 rpm). Following incubation, stop reagent was added, and the absorbance was read at 450 nm using a UV-VIS spectrophotometer (Molecular Devices, model M2). All experiments were performed in triplicate. Percent pSTAT5 inhibition was calculated from background-subtracted pSTAT5 levels using Equation 2:(2) %inhibition=100×(pSTAT5hGH−pSTAT5PI)/pSTAT5hGH where pSTAT5hGH is the fold-induction of pSTAT5 upon treatment with hGH alone and pSTAT5PI is the fold-induction of pSTAT5 upon co-treatment with hGH and peptide inhibitor.

inhibition at 0.05 µM (hGHR [1]; 50 nM inhibitor with 2.5 nM hGH, Western blot, compared with hGH alone, read-out: inhibition of hGH-induced pSTAT5): 40% | suppression of hGH-mediated pSTAT5 (hGHR [1]; 200 nM S1H with 2.5 nM hGH, Western blot densitometry, n = 3): 56% | inhibition at 0.2 µM (hGHR [2]): 98.3%
Compound: CC[C@H](C)[C@H](NC(=O)[C@H](Cc1ccc(O)cc1)NC(C)=O)C(=O)N1CCC[C@H]1C(=O)N[C@@H](CCCCN)C(=O)N[C@@H](CCC(=O)O)C(=O)N[C@@H](CCC(N)=O)C(=O)N[C@@H](CCCCN)C(=O)N[C@@H](Cc1ccc(O)cc1)C(=O)N[C@@H](CO)C(=O)N[C@@H](Cc1ccccc1)C(=O)N[C@@H](CC(C)C)C(=O)N[C@@H](CCC(N)=O)C(=O)N[C@@H](CC(N)=O)C(=O)N1CCC[C@H]1C(=O)N[C@@H](CCC(N)=O)C(=O)N[C@H](C(N)=O)[C@@H](C)O [S1H]
